Numbering of substitutions follows the chain as printed. Read-outs that look alike come from different tables or passages of the source. One block for each compound: values may come before it.
Legend:
[1] = molecular target: T1, human Wip1 protein (rWip1, catalytic domain, residues 1-420) (Homo sapiens, UniProt O15297); test: Wip1 phosphatase assay (malachite green/molybdate-based)
T1 sequence (O15297 1-420): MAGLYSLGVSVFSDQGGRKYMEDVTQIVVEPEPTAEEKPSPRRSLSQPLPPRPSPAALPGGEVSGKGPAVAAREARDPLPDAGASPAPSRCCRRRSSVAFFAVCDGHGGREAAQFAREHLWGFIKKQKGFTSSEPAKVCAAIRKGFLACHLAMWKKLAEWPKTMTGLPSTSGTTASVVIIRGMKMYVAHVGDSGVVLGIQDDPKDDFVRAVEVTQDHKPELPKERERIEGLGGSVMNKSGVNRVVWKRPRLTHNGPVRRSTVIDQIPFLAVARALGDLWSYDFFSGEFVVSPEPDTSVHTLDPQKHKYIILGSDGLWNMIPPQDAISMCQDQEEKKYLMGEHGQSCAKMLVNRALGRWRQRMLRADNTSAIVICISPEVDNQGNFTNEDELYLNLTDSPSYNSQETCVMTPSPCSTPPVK
Experimental: (§1) An N-terminal histidine-tagged, catalytic domain of the human Wip1 protein (amino acid residues 1-420), rWip1, and K238D mutant of Wip1 were expressed in Escherichia coli BL21 (DE3) and purified as previously reported in Yamaguchi et al., supra.
(§2) Phosphatase activity was measured by a malachite green/molybdate-based assay (see, e.g., Yamaguchi et al., Biochemistry, 44:5285-5294 (2005), Harder et al, Biochem J., 298: 395-401 (1994), and Donella-Deana et al., Methods Enzymol., 366: 3-17 (2003)). […] The inhibitors were pre-equilibrated at 30° C. for 6 min. The inhibition percentages were estimated by the following equation.
(§3) where A and A100 denote absorbance intensities at 650 nm with and without the inhibitor, respectively. A0 denotes absorbance of the sample without phosphatase. The IC50 values were estimated by a sigmoidal dose-response equation. The apparent inhibitory constant (Ki) values were estimated using the following equation (see, e.g., Cheng et al., Biochem. Pharmacol., 22: 3099-3108 (1973)):

PP2Cα = molecular target: T2, PP2Cα (Homo sapiens, UniProt P35813); test: Phosphatase assay with PP2Cα; conditions: for Ki: read-out: Ki (μM) PP2Cα, Table 2, NI = no inhibition observed
T2 sequence (P35813 1-382): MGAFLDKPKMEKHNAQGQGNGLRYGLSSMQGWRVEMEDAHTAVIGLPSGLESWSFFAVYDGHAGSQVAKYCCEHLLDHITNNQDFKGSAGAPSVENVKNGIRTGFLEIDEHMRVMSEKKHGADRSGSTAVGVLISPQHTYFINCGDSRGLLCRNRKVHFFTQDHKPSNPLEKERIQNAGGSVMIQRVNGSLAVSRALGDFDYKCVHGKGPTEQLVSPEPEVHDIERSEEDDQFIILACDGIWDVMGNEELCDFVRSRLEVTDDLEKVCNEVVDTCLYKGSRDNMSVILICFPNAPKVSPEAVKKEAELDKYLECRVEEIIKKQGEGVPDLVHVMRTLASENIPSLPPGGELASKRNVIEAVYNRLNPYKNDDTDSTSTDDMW
Experimental: (§4) The inhibitors were pre-equilibrated at 30° C. for 6 min. The inhibition percentages were estimated by the following equation.
as §3
(§5) wherein [S] is the concentration of the substrate peptide and Km is the Michaelis constant.
(§6) The selectivity of the compounds was determined. Certain compounds were tested to determine their selectivity in inhibiting Wip1, PP2Cα, and a K238D mutant of Wip1 according to the methods described above.

[2] = test system: human Wip1 protein (rWip1, catalytic domain, residues 1-420); test: Wip1 phosphatase assay (malachite green/molybdate-based); conditions: versus K238D mutant and PP2Cα
Experimental: as §1, §2, §3

Wip1(K238D) = molecular target: T3, Wip1(K238D) (Homo sapiens, UniProt O15297, K238D); test: Phosphatase assay with the K238D mutant of Wip1; conditions: for Ki: read-out: Ki (μM) Wip1(K238D), Table 2, K238D mutant of Wip1, NI = no inhibition observed
T3 sequence (O15297 1-420 K238D): T1 sequence (O15297 1-420) with K238D
Experimental: as §4, §3, §5, §6

Wip1 in MCF7 cells = test: Western blot of phospho-p38 MAPK and p38 MAPK in MCF7 cells treated with compound; type: cell-based, human; conditions: DMSO negative and UV (25J/m2) positive controls
Experimental: The selectivity of three compounds in inhibiting Wip1 was tested on human breast cancer cell line MCF7 cells, the latter strongly expressing Wip1. These cells were treated with each compound, and cell lysates were collected after the indicated time point. 20 ug of total protein extracts were subjected to SDS-PAGE, and levels of phospho-p38 MAPK and p38 MAPK were examined by Western blot analysis using specific antibodies. Dimethyl sulphoxide (DMSO) and UV (25J/m2) treated cells were used as the negative and positive controls respectively.

Ki [1]: 38 ± 8 µM
SMILES: Cc1c(C(N)=O)c(-c2ccc(OP(=O)(O)O)c(Cl)c2)c(CC(C)C)n1CCOP(=O)(O)O [Compound 6]

SMILES: CCCC(C)Cc1c(-c2ccc(OP(=O)(O)O)c(Cl)c2)c(C(N)=O)c(CCc2ccc(Cl)cc2)n1CCCOP(=O)(O)O (stereo not drawn) [Compound 24]
inhibition of PP2Cα (PP2Cα): no inhibition | Ki (PP2Cα): > 100 µM | selectivity for Wip1 [2]: highly selective | Ki [1]: 5.7 ± 0.4 µM | inhibition of the K238D mutant (Wip1(K238D)): no inhibition | Ki (Wip1(K238D)): > 100 µM

Ki [1]: 16 ± 2 µM
SMILES: CCCC(C)Cc1c(-c2ccc(OP(=O)(O)O)c(Cl)c2)c(C(N)=O)c(Cc2ccc(F)cc2)n1CCCOP(=O)(O)O (stereo not drawn) [Compound 23]

Ki [1]: 15 ± 1 µM
SMILES: CCCC(C)Cc1c(-c2ccc(OP(=O)(O)O)c(Cl)c2)c(C(N)=O)c(CCc2ccccc2)n1CCCOP(=O)(O)O (stereo not drawn) [Compound 18]

Ki [1]: 48 ± 5 µM
SMILES: CCCC(C)Cc1c(-c2ccc(OP(=O)(O)O)cc2)c(C(N)=O)c(CC(C)C)n1CCCOP(=O)(O)O (stereo not drawn) [Compound 15]

SMILES: CCC[C@H](C)Cc1c(-c2ccc(OP(=O)(O)O)c(Cl)c2)c(C(N)=O)c(CCc2ccc(Cl)cc2)n1CCCOP(=O)(O)O [Compound 25]
inhibition of PP2Cα (PP2Cα): no inhibition | Ki (PP2Cα): > 100 µM | selectivity for Wip1 [2]: highly selective | Ki [1]: 4.7 ± 0.7 µM | inhibition of the K238D mutant (Wip1(K238D)): no inhibition | Ki (Wip1(K238D)): > 100 µM

Ki [1]: 61 ± 15 µM
SMILES: CCCC(C)Cc1c(-c2ccc(OP(=O)(O)O)cc2)c(C(N)=O)c(C)n1CCOP(=O)(O)O (stereo not drawn) [Compound 3]

Ki [1]: 81 ± 5 µM
SMILES: Cc1c(C(N)=O)c(-c2ccc(OP(=O)(O)O)cc2)c(CC2CCCCC2)n1CCOP(=O)(O)O [Compound 4]

Ki [1]: 28 ± 1 µM
SMILES: Cc1c(C(N)=O)c(-c2ccc(OP(=O)(O)O)c(Cl)c2)c(CC(C)C)n1CCCOP(=O)(O)O [Compound 10]

SMILES: CCCC(C)Cc1c(-c2ccc(OP(=O)(O)O)c(Cl)c2)c(C(=O)NCCC(N)=O)c(C)n1CCCOP(=O)(O)O (stereo not drawn) [Compound 12]
Ki ([1]; pH 7.5): > 100 µM

SMILES: CCC[C@@H](C)Cc1c(-c2ccc(OP(=O)(O)O)c(Cl)c2)c(C(N)=O)c(CCc2ccc(Cl)cc2)n1CCCOP(=O)(O)O [Compound 26]
inhibition of PP2Cα (PP2Cα): no inhibition | Ki (PP2Cα): > 100 µM | selectivity for Wip1 [2]: highly selective | Ki [1]: 10 ± 1 µM | inhibition of the K238D mutant (Wip1(K238D)): no inhibition | Ki (Wip1(K238D)): > 100 µM

SMILES: CCCC(C)Cc1c(-c2ccc(OP(=O)(O)O)c(Cl)c2)c(C(N)=O)c(C)n1CCCCOP(=O)(O)O (stereo not drawn) [Compound 11]
Ki ([1]; pH 7.5): > 100 µM

Ki [1]: 22 ± 2 µM
SMILES: CCCC(C)Cc1c(-c2ccc(OP(=O)(O)O)c(Cl)c2)c(C(=O)NC(CC(C)C)C(N)=O)c(C)n1CCCOP(=O)(O)O (stereo not drawn) [Compound 13]

SMILES: CCCCC(C)c1c(C(N)=O)c(-c2ccc(OP(=O)(O)O)c(Cl)c2)c(C)n1CCCOP(=O)(O)O (stereo not drawn) [Compound 14]
Ki ([1]; pH 7.5): > 100 µM

Ki [1]: 40 ± 1 µM
SMILES: CCCC(C)Cc1c(-c2ccc(OP(=O)(O)O)c(Cl)c2)c(C(N)=O)c(C)n1CCOP(=O)(O)O (stereo not drawn) [Compound 7]

Ki [1]: 22 ± 1 µM
SMILES: CC(C)Cc1c(-c2ccc(OP(=O)(O)O)c(Cl)c2)c(C(N)=O)c(Cc2ccc(Cl)cc2)n1CCCOP(=O)(O)O [Compound 21]

Ki [1]: 77 ± 12 µM
SMILES: CCCCCc1c(-c2ccc(OP(=O)(O)O)c(Cl)c2)c(C(N)=O)c(C)n1CCOP(=O)(O)O [Compound 5]

SMILES: CCc1c(-c2ccc(OP(=O)(O)O)cc2)c(C(N)=O)c(C)n1CCOP(=O)(O)O [Compound 1]
Ki ([1]; pH 7.5): > 100 µM

Ki [1]: 22 ± 3 µM
SMILES: CCCC(C)Cc1c(-c2ccc(OP(=O)(O)O)cc2)c(C(N)=O)c(C)n1CCCOP(=O)(O)O (stereo not drawn) [Compound 9]

SMILES: CCCc1c(-c2ccc(OP(=O)(O)O)cc2)c(C(N)=O)c(C)n1CCOP(=O)(O)O [Compound 2]
Ki ([1]; pH 7.5): > 100 µM

SMILES: CCCCC(CCCC)Cc1c(-c2ccc(OP(=O)(OCCSC(=O)C(C)(C)C)Oc3ccccc3)c(Cl)c2)c(C(=O)O)c(Cc2ccc(Cl)cc2)n1CCCOP(=O)(OCCSC(=O)C(C)(C)C)Oc1ccccc1 (stereo not drawn) [Compound 1A]
effectiveness in inhibiting Wip1 (levels of phospho-p38 MAPK) (Wip1 in MCF7 cells): effective

Reference: patent US20100256098A1, “COMPOUNDS FOR INHIBITING WIP1, PRODRUGS AND COMPOSITIONS THEREOF, AND RELATED METHODS” (The United States of America, as represented by the …, priority 2007, published 2010)
